Results: patent US20070026090A1, “Treatment and prevention of inflammatory disease and mitochondrial dysfunction with high dose selenium” (priority 2003, published 2007)

What was measured:
NF-κB = NF-κB binding activity of nuclear extracts of treated macrophages (EMSA); assay type: cell-based, murine
Experimental: Cell culture: Murine J774.2 macrophages (kindly provided by Prof. Dov Zipori from the Weizmann Institute of Science) were grown in RPMI medium supplemented with 10% (w/v) fetal calf serum, penicillin (100 U/ml), streptomycin (100 μg/ml) and 1× glutamine at 37° C. in a humidified atmosphere consisting of 95% air and 5% CO2. Experiments were performed on cells at 60% confluence.
(§1) Nuclear extracts: Nuclear Extracts were prepared using a slight modification of the method of Dignam et al (23). Treated cells were washed with cold PBS, scraped and centrifuged. Hypotonic buffer (1 ml, 20 mM HEPES pH 7.0, 10 mM KCl, 1 mM mGCl2, 0.5 mM DTT, 0.1% Triton X-100, 20% glycerol, 2 mM PMSP, 1 mg/ml Aprotonin and Leupeptin) was added to the cell pellets, the pellets were disrupted by pipetting, and centrifuged 3000 RPM for 5 min. The pellets were re-suspended in 100 μl cold extraction buffer (20 mM HEPES pH 7.0, 10 mM KCl, 1 mM mGCl2, 0.5 mM DTT, 0.1% Triton X-100, 20% glycerol, 2 mM PMSF, 1 mg/ml Aprotonin and Leupeptin, 420 mM NaCl). The samples were rotated for 20 min at 4° C., centrifuged 15,000 RPM for 10 min, and supernatants collected. Protein content was measured using Bradford reagent. Samples were stored frozen at minus 70° C.
Electromobility shift assay (EMSA)—Gel shift assays were performed according to the gel shift assay protocol from Promega Corp. (San Luis Obispo, Calif.). A 22-mer double-stranded NF-κB consensus oligonucleotide 5′-[…]-3′ (SEQ ID NO:3), and Sp1 consensus oligonucleotide 5′-[…]-3(SEQ ID NO:4), were labeled with 32P. For each reaction, 2 μg of nuclear extract were incubated with 2 μl of 5× binding buffer for 5 min., 1 μl of the ^32P-labeled oligonucleotide was added at room temperature for 20 min., the samples were prepared by adding 1 μl of dye free loading buffer, and separated using 6% non-denaturing acrylamide gel electrophoresis. The gel was dried and exposed to a phosphoimaging screen for 18 hours and then visualized with a phosphoimager. For specificity, 1 μl of unlabeled consensus oligonucleotide was used to compete with the labeled probe.

[1] = test system: hapten (TNBS)-induced colitis
Experimental: Animals: Male Sprague-Dawley rats (approximately 150 g bw) received food and water ad libitum. They were kept in plastic cages with wire tops in a light-controlled room.
High-dose dietary selenium supplementation: Rats received food and (unsupplemented) water ad libitum (control group). Normal selenium (control) diet included 0.2 mg selenium/kg chow. […] The high-selenium diet provided approximately 2-3 μ/gm day of selenium per animal, which is considered an acceptable excess supplementation diet for this element (Davis et al., 1998; Shilo et al., 2003).
Induction of colitis and sample collection: Colitis was induced by administration of 0.5 ml of 2,4,6-trinitrobenzene sulphonic acid (TNBS, 100 mg/ml dissolved in 50% ethanol)through the anal canal, at a distance of 8 cm into the colon, just proximal to the splenic flexure. 24 hours after induction animals were sacrificed and the colon was removed for pathology, histocytological, biochemical or immunohistocytological analysis (Reifen et al., 2000).

J774.2 macrophages = assay: Type of cell death (annexin V-FITC / PI); assay type: cell-based, murine; details: 10 μM, 24 hours; annexin V-FITC and PI
Experimental: Experiments were performed on cells at 60% confluence.
Determination of type of cell death: Type of cell death was determined by dual staining with annexin V-FITC (Santa Cruz Biotechnology, Santa Cruz Calif., USA) and PI, and flow cytometric analysis. Cells were treated with 10 μM selenite for 24 h then collected and re-suspended in binding buffer (10 mM HEPES/NaOH, pH 7.4, 140 mM NaCl, 2.5 mM CaCl2). 2.5 μg/ml annexin V-FITC was added and cells were incubated for 30 min at room temperature, then 0.25 μg/ml PI was added and samples were analyzed by flow cytometry (FACSort, Becton Dickenson and. Co., San Jose, Calif. USA).

Sp1 = Sp1 binding in vitro, selenite added to nuclear extract (EMSA); set-up: species or system murine; details: 5 μM added to nuclear extract 5 minutes before (FIG. 13C)
Experimental: as §1
Electromobility shift assay (EMSA)—Gel shift assays were performed according to the gel shift assay protocol from Promega Corp. (San Luis Obispo, Calif.). A 22-mer double-stranded NF-κB consensus oligonucleotide 5′-[…]-3′ (SEQ ID NO:3), and Sp1 consensus oligonucleotide 5′-[…]-3(SEQ ID NO:4), were labeled with 32P. […]

GAPDH = GAPDH housekeeping control transcript (RTPCR); assay type: cell-based, murine
Experimental: Reverse transcriptase-PCR (RTPCR): Total RNA was prepared and isolated by the Tri-Reagent method according to the manufacturer's protocol (Sigma, St. Louis Mo., USA). Total RNA (1 μg) was converted into cDNA using Reverse-iT first strand synthesis kit (Abgene, UK). Amplification of MnSOD and UCP2 sequences was performed by incubating 10 ng equivalents of DNA with the following oligonucleotide primers:
The sequence of glyceraldehyde-3-phosphate dehydrogenase (GAPDH) was amplified as a control using the following primers: Left (sense) 5′-[…]-3′(SEQ ID NO: 9) corresponding to nucleotides 364 to 382 of mouse mRNA (GenBank Accession No. XM 195823.21).
Right (antisense) 5′[…]-3′ (SEQ ID NO: 10) corresponding to nucleotides 683 to 703 of mouse mRNA (GenBank Accession No. XM 195823.21). The expected PCR product was 339 bp. Actual PCR product was approximately 340 bp, measured on 1.25% agarose gel in TAE containing ethidium bromide.
PCR was performed with 28 cycles (25 cycles for GAPDH) of 30 seconds at 96° C., 30 seconds at 58° C. and 1 min at 72° C. RTPCR products were analyzed on 1.3% (w/v) agarose gels.

[2] = in vivo; cited from earlier work

## [Se] [selenium]
NF-κB; 0.5-5 μM, 72 hours (FIG. 12A)
  NF-κB translocation, resting unactivated macrophages: no effect
NF-κB; 72 hours, then 6 hours LPS + INFγ, range 0.5-5 μM (FIG. 12A)
  lowest concentration with dramatic effect on NF-κB translocation, activated macrophages: 0.5 µM
NF-κB; concentration-dependent (FIG. 12A)
  nuclear import of NF-κB, activated macrophages: dramatically reduced
[1]; 24 h after TNBS, 3 weeks high-dose supplementation, unsupplemented rat more than 80%
  necrosis, share of the colon (gross pathology): less than 15%
[1]; rat, in vivo
  effects on colon tissue of healthy, uninduced rats (gross pathology): no apparent effects
J774.2 macrophages
  character of cell death: cell death with necrotic characteristics
Sp1
  Sp-1 binding in vitro: directly inhibited
GAPDH; LPS + INFγ activated (FIG. 11)
  GADPH expression, activated macrophages: No effect
GAPDH; resting J774.2 (FIGS. 9, 10)
  GADPH RNA levels: No effect
[2]
  carcinogenesis in male mice: unaffected
